Experimental data taken from patent publication US6669939B1, “(Poly)peptides which represent the epitopes of the human herpes virus type 8” (Biotrin International Properties Limited, priority 1998, dated 2003).

Tested on: anti-EBV antibodies
Experiment: ELISA with EBV control peptide, comparing antibody titers against HHV-8 and EBV
Type: binding, human
Method: Various control panels as well as control peptides were used to test the specificity of the HHV-8 antibody ELISA. Using an EBV control peptide (cf. table 2), analyses were carried out to compare antibody titers against HHV-8 and EBV (a closely related herpesvirus). In 56 out of 64 cases the observed antibody titers were at least 30% divergent; the EBV seroprevalence was 86% with HIV-positive patients and 72% with the controls.

**Q.** How did the EBV seroprevalence (HIV-positive patients) turn out when “S G S G Q E P P A P Q A P I (SGSGQEPPAPQAPI; Epstein-Barr virus) [EBV control peptide, control peptide, Epstein-Barr virus strain B95-8, EBNA 6, position 100695-100724, with SGSG spacer]” was run?
**A.** The EBV seroprevalence was 86%.

**Q.** And the EBV seroprevalence (controls)?
**A.** The EBV seroprevalence was 72%.
